From ChEMBL document CHEMBL1149733, “Antitumor agents, 130, Novel 4 beta-arylamino derivatives of 3',4'-didemethoxy-3',4'-dioxo-4-deoxypodophyllotoxin as potent inhibitors of human DNA topoisomerase II” (1992)

Columns and labels:
[1] = biological target: DNA topoisomerase 2-alpha (Homo sapiens) (UniProt P11388); experiment: Inhibition of strand rejoining activity of human DNA topoisomerase 2 assessed as protein-DNA complex formation at 10 uM by cell-based assay; design: scale not given: the % may be the effect or the level left
[2] = biological target: DNA topoisomerase 2-alpha (Homo sapiens) (UniProt P11388); experiment: Inhibition of human DNA topoisomerase 2
[3] = tested on: KB; experiment: Cytotoxicity against human KB cells assessed as reduction in cell number after 3 days; format: functional; conditions: 72 h, read-out: ID50 (the source's name)
[4] = tested on: EMT6; experiment: Ratio of cytotoxicity for normally oxygenated mouse EMT6 cells over hypoxic mouse EMT6 cells; format: functional

Chain of DNA topoisomerase 2-alpha (Homo sapiens) (P11388 whole entry): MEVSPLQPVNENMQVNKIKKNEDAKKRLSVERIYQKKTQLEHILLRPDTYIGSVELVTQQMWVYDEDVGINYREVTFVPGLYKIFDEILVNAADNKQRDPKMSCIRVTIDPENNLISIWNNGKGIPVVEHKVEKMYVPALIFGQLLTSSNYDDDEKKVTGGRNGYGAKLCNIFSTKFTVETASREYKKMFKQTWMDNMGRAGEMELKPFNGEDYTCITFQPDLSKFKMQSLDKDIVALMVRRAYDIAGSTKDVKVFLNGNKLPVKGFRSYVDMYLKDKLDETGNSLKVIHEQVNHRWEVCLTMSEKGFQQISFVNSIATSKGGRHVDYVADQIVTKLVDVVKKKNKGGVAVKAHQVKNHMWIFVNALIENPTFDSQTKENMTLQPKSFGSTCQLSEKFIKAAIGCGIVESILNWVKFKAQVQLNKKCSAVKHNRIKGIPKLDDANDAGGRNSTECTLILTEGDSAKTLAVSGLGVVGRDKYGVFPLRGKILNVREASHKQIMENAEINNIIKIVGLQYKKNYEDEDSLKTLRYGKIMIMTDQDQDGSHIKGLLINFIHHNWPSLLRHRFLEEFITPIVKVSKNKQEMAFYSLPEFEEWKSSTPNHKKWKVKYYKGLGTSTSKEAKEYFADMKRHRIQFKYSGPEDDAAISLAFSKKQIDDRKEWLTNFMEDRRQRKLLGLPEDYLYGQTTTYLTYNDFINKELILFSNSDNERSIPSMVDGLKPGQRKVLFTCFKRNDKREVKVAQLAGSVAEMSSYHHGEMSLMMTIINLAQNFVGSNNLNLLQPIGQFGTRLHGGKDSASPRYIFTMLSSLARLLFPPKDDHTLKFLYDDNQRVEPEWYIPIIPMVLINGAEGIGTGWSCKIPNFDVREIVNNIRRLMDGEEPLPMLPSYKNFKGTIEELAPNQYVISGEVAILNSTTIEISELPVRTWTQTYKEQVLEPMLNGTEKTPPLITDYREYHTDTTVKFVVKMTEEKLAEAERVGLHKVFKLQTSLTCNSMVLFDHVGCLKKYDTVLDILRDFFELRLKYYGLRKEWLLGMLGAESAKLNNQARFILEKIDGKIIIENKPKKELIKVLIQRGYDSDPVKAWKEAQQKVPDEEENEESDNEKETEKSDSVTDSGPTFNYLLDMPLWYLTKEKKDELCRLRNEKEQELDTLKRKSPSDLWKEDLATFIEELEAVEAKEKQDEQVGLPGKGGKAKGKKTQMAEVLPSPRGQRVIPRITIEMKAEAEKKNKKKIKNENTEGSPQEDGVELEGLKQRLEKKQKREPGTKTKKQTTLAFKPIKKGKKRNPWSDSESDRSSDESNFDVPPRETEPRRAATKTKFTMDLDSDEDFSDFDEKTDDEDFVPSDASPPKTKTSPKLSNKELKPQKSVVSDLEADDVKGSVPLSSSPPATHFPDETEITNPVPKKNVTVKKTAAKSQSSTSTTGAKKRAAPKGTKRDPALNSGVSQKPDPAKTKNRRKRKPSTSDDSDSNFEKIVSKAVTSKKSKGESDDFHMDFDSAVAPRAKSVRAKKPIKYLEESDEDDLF

Compound | Activity [1] | ID50 [2] | IC50 [3] | Ratio [4]
COc1cc([C@@H]2c3cc4c(cc3[C@@H](Nc3ccccc3)[C@H]3COC(=O)[C@H]23)OCO4)cc(OC)c1O | 243% | 25000 nM | 700 nM | 
COc1cc([C@@H]2c3cc4c(cc3[C@@H](Oc3ccc(F)cc3)[C@H]3COC(=O)[C@H]23)OCO4)cc(OC)c1O | 57% | > 100000 nM | 500 nM | 
COc1cc([C@@H]2c3cc4c(cc3[C@@H](O[C@@H]3O[C@@H]5CO[C@@H](C)O[C@H]5[C@H](O)[C@H]3O)[C@H]3COC(=O)[C@H]23)OCO4)cc(OC)c1O [ETOPOSIDE] | 100% |  |  | 30
COc1cc([C@@H]2c3cc4c(cc3[C@@H](Nc3ccc(F)cc3)[C@H]3COC(=O)[C@H]23)OCO4)cc(OC)c1O | 2.13% | 5000 nM | 200 nM | 
COc1cc([C@@H]2c3cc4c(cc3[C@@H](Nc3cncc5ccccc35)[C@H]3COC(=O)[C@H]23)OCO4)cc(OC)c1O | 123% | 50000 nM | < 1000 nM | 
